Test results from US20160115540A1, “PRODRUGS AND DRUGS” (Biogen MA Inc., priority 2013, published 2016).
Where a name gives a salt, the structure may show the parent alone.

Test system: jejunum
Experiment: Transcriptional profiling on Affymetrix GeneChips, single dose, naïve mice: jejunum
Type: in vivo, C57BL/6 mice
Protocol: Treated mice were sacrificed at 2, 7, or 12 hours. Tissues (liver, spleen, kidney, jejunum, cortex, hippocampus, striatum and whole blood) were collected and analyzed by transcriptional profiling on mouse Affymetrix GeneChips.
Tissues (liver, spleen, kidney, jejunum, cortex, hippocampus, striatum and whole blood) were collected and analyzed by transcriptional profiling on mouse Affymetrix GeneChips.
Animals were exposed to CO2 and whole blood collected via cardiac puncture. Two 100 μl aliquots of whole blood were collected in 1.5 mL microcentrifuge tubes and snap frozen in liquid nitrogen. Peripheral (liver, spleen, kidney and jejunum) and CNS brain (cerebellum, hippocampus, striatum and cortex) tissues were harvested and snap frozen in liquid nitrogen, with special care taken to collect tissues of similar size and from the same location. All samples were stored at −80° C. until RNA extraction was conducted.
For RNA preparation, frozen tissues were placed in 2 mL RNAse-free 96-well blocks with 1.5 mL QIAzol Lysis Reagent (QIAgen) and a 3.2 mm stainless steel bead (BioSpec Products, Bartlesville, Okla.). Tissues were disrupted for four cycles of 45 seconds in a Mini-Beadbeater (Biospec Products). RNA was extracted in chloroform and the aqueous phase was mixed with an equal volume of 70% ethanol. Extracted RNA was applied to RNeasy 96 plates and purified by the spin method according to the manufacturer's protocol (RNeasy 96 Universal Tissue Protocol, QIAgen, Hilden Germany).
Automated sample amplifications and biotin labelings were carried out using the NuGEN Ovation RNA Amplification system V2 (Cat #3100), Ovation WB reagent (Cat #1300) and Encore Biotin module (Cat #4200) (NuGEN Technologies, Inc, San Carlos, Calif.) according to manufacturer's recommendations using an Arrayplex automated liquid handler (Beckman Coulter, Indianapolis, Ind.). Two micrograms of biotin labeled sscDNA probe were hybridized to Affymetrix GeneChip Affymetrix HT_MG-430_PM plate arrays with modified conditions as described in Allaire et al. Washing and staining of the hybridized arrays were completed as described in the GeneChip Expression analysis technical manual for HT plate arrays using the Genechip® Array Station (Affymetrix, Santa Clara, Calif.) with modifications as described in Allaire et al. The processed GeneChip® plate arrays were scanned using GeneTitan scanner (Affymetrix, Santa Clara, Calif.).
Affymetrix scans were subject to quality control (QC) measures. These tests included a visual inspection of the distribution of raw signal intensities and an assessment of RNA degradation, relative log expression (RLE), and normalized unsealed standard error (NUSE). All sample scans that passed these QC metrics were included in the analysis.
All CEL files were subjected to GC-content-based Robust Multi-array Average (GCRMA) normalization (version 2.20.0) (Irizarry R A, et al. Nucleic Acids Res 2003; 31:e15; Li C, et al. Genome Biol 2001; 2:[…]0032). Expression levels were log (base 2) transformed.
All calculations and analyses were carried out using R (version 2.11.1) and Bioconductor computational tools (Gentleman R. Springer Science+Business Media 2005).

[1] = 100DMF-vs-Veh or 100MMF-vs-Veh, 12 h

COC(=O)/C=C/C(=O)O [MMF, monomethyl fumarate]
FC Abcc3 (1428988_PM_at) [1]: 2.10
FC Acsm5 (1437662_PM_at) [1]: 1.95
FC Akr1b8 (1448894_PM_at) [1]: 18.78
FC Akr1c12 (1450455_PM_s_at) [1]: 1.76
FC Akr1c19 (1455454_PM_at) [1]: 3.53
FC Blvrb (1451386_PM_at) [1]: 1.54
FC Cbr3 (1427912_PM_at) [1]: 32.24
FC Ces1e (1419510_PM_at) [1]: 2.77
FC Ces1f (1424266_PM_s_at) [1]: 6.54
FC Ces1g (1449486_PM_at) [1]: 9.45
FC G6pd2 (1422327_PM_s_at) [1]: 1.83
FC Gpx2 (1449279_PM_at) [1]: 1.54
FC Gsr (1421816_PM_at) [1]: 2.67
FC Gss (1441931_PM_x_at) [1]: 1.55
FC Gsta2 (1421040_PM_a_at) [1]: 6.66
FC Gsta2 (1421041_PM_s_at) [1]: 2.09
FC Gsta3 (1423436_PM_at) [1]: 10.80
FC Gsta3 (1423437_PM_at) [1]: 7.97
FC Gstm1 (1425627_PM_x_at) [1]: 4.61
FC Gstm1 (1448330_PM_at) [1]: 4.27
FC Gstm3 (1427473_PM_at) [1]: 2.14
FC Gstm3 (1427474_PM_s_at) [1]: 1.58
FC Gstm4 (1424835_PM_at) [1]: 5.43
FC Gstm6 (1422072_PM_a_at) [1]: 2.19
FC Nqo1 (1423627_PM_at) [1]: 2.34
FC Pir (1429001_PM_at) [1]: 4.19
FC Setd4 (1425239_PM_at) [1]: 1.60
FC Setd4 (1460373_PM_a_at) [1]: 1.56
FC Slc5a4b (1422757_PM_at) [1]: 2.16
FC Ugt2b5 (1419622_PM_at) [1]: 5.00
FC Ugt2b35 (1439624_PM_at) [1]: 2.45
FC Ugt2b36 (1455595_PM_at) [1]: 3.03
FC 6-Sep (1424181_PM_at) (100MMF-vs-Veh, 2 h): 1.56
FC 1443118_PM_at (100MMF-vs-Veh, 2 h): 1.69
FC 1444265_PM_at (100MMF-vs-Veh, 2 h): 1.93
FC 1445980_PM_at (100MMF-vs-Veh, 2 h): 2.43
FC 1446045_PM_at (100MMF-vs-Veh, 2 h): 1.69
FC 1447411_PM_at (100MMF-vs-Veh, 2 h): 2.81
FC 1459091_PM_at (100MMF-vs-Veh, 2 h): 2.02
FC 2010002N04Rik (1423306_PM_at) (100MMF-vs-Veh, 2 h): 1.57
FC 9030409G11Rik (1434169_PM_at) (100MMF-vs-Veh, 2 h): 1.52
FC 9130221J17Rik (1443159_PM_at) (100MMF-vs-Veh, 2 h): 2.36
FC Acss2 (1446542_PM_at) (100MMF-vs-Veh, 2 h): 1.84
FC Akr1b8 (1448894_PM_at) (100MMF-vs-Veh, 2 h): 8.24
FC Akr1c19 (1455454_PM_at) (100MMF-vs-Veh, 2 h): 2.33
FC Areg (1421134_PM_at) (100MMF-vs-Veh, 2 h): 2.71
FC Blvrb (1451386_PM_at) (100MMF-vs-Veh, 2 h): 1.57
FC Bmp2 (1423635_PM_at) (100MMF-vs-Veh, 2 h): −1.55
FC Cbr1 (1460196_PM_at) (100MMF-vs-Veh, 2 h): 1.53
FC Cbr3 (1427912_PM_at) (100MMF-vs-Veh, 2 h): 55.49
FC Ces1f (1424266_PM_s_at) (100MMF-vs-Veh, 2 h): 2.71
FC Ces1g (1449486_PM_at) (100MMF-vs-Veh, 2 h): 3.68
FC Dnase2a (1430135_PM_at) (100MMF-vs-Veh, 2 h): 1.79
FC Dppa5a (1416552_PM_at) (100MMF-vs-Veh, 2 h): 2.64
FC Ereg (1419431_PM_at) (100MMF-vs-Veh, 2 h): 2.00
FC Ero1l (1419030_PM_at) (100MMF-vs-Veh, 2 h): 1.90
FC Esd (1441604_PM_at) (100MMF-vs-Veh, 2 h): 1.52
FC Figf (1438953_PM_at) (100MMF-vs-Veh, 2 h): 1.63
FC G6pd2 (1422327_PM_s_at) (100MMF-vs-Veh, 2 h): 1.74
FC Gabarapl1 (1416418_PM_at) (100MMF-vs-Veh, 2 h): 1.52
FC Gclc (1424296_PM_at) (100MMF-vs-Veh, 2 h): 3.99
FC Gclc (1455959_PM_s_at) (100MMF-vs-Veh, 2 h): 3.06
FC Gsr (1421816_PM_at) (100MMF-vs-Veh, 2 h): 2.19
FC Gss (1441931_PM_x_at) (100MMF-vs-Veh, 2 h): 1.92
FC Gss (1448273_PM_at) (100MMF-vs-Veh, 2 h): 1.69
FC Gsta3 (1423436_PM_at) (100MMF-vs-Veh, 2 h): 3.23
FC Gsta3 (1423437_PM_at) (100MMF-vs-Veh, 2 h): 3.64
FC Gstm1 (1416416_PM_x_at) (100MMF-vs-Veh, 2 h): 2.38
FC Gstm1 (1425627_PM_x_at) (100MMF-vs-Veh, 2 h): 2.70
FC Gstm1 (1448330_PM_at) (100MMF-vs-Veh, 2 h): 2.47
FC Gstm3 (1427473_PM_at) (100MMF-vs-Veh, 2 h): 2.51
FC Gstm3 (1427474_PM_s_at) (100MMF-vs-Veh, 2 h): 1.57
FC Hfe 1422645_PM_at (100MMF-vs-Veh, 2 h): 1.73
FC Htatip2 (1451814_PM_a_at) (100MMF-vs-Veh, 2 h): 1.53
FC LOC100504040 (1457279_PM_at) (100MMF-vs-Veh, 2 h): 2.24
FC Lpin2 (1452837_PM_at) (100MMF-vs-Veh, 2 h): 1.61
FC Lrp8 (1440882_PM_at) (100MMF-vs-Veh, 2 h): 2.23
FC Mafg (1434054_PM_at) (100MMF-vs-Veh, 2 h): 1.95
FC Mafg (1448916_PM_at) (100MMF-vs-Veh, 2 h): 2.01
FC Nqo1 (1423627_PM_at) (100MMF-vs-Veh, 2 h): 2.16
FC Osgin1 (1424022_PM_at) (100MMF-vs-Veh, 2 h): 1.98
FC Prr5l (1452834_PM_at) (100MMF-vs-Veh, 2 h): −1.64
FC Prss8 (1418320_PM_at) (100MMF-vs-Veh, 2 h): 2.41
FC Setd4 (1425239_PM_at) (100MMF-vs-Veh, 2 h): 2.11
FC Setd4 (1435405_PM_at) (100MMF-vs-Veh, 2 h): 1.93
FC Setd4 (1460373_PM_a_at) (100MMF-vs-Veh, 2 h): 1.87
